Measured values published in US20210101881A1 (Ancureall Pharmaceutical (Shanghai) Co., Ltd., priority 2018, published 2021).

Each compound was assayed on MOLM13 cells (assay: Growth inhibition of CDK9-positive cell line MOLM13 in vitro (CCK8/MTT assay)). Conditions: Homo sapiens, MOLM-13; MOLM13 cells, cultured 3 to 6 days, CCK8; read-out: IC50 of the compound for inhibiting cell growth, MOLM13 cells.
Type: cell-based, human

Q: Which IC50 does the source give for `COc1ccc(Nc2ncc(Cl)c(-n3cc(C(N)=O)c4ccccc43)n2)cc1N1CCN(C)CC1` [Compound 122, 1-{5-chloro-2-[4-methoxy-3-(4-methyl-piperazin-1-yl)-phenylamino]-pyrimidin-4-yl}-1H-indole-3-carboxamide] here?
A: Its IC50 is 10 to 100 nM.

Q: `COc1cnc(Nc2cccc(N3CCN(C)CC3)c2)nc1-n1cc(C(N)=O)c2ccccc21` [Compound 123, 1-{5-methoxy-2-[3-(4-methyl-piperazin-1-yl)-phenylamino]-pyrimidin-4-yl}-1H-indole-3-carboxamide] was tested. Which IC50 did it give?
A: The IC50 was 1 to 10 nM.

Q: With `Cc1cnc(Nc2cccc(N3CCN(C)CC3)c2)nc1-n1cc(C(N)=O)c2ccccc21` [Compound 124, 1-{5-methyl-2-[3-(4-methyl-piperazin-1-yl)-phenylamino]-pyrimidin-4-yl}-1H-indole-3-carboxamide] as the compound, how does the IC50 read?
A: Its IC50 is 1 to 10 nM.

Q: `COCCN1CCN(c2cccc(Nc3nccc(-n4cc(C(N)=O)c5ccccc54)n3)c2)CC1` [Compound 126, 1-(2-{3-[4-(2-methoxy-ethyl)-piperazin-1-yl]-phenylamino]-pyrimidin-4-yl}-1H-indole-3-carboxamide] was tested. Which IC50 did it give?
A: The IC50 was 1 to 10 nM.

Q: Which IC50 does the source give for `C=CC(=O)N1CCN(c2cccc(Nc3nccc(-n4cc(C(N)=O)c5ccccc54)n3)c2)CC1` [Compound 127, 1-{2-[3-(4-acryloyl-piperazin-1-yl)-phenylamino]-pyrimidin-4-yl}-1H-indole-3-carboxamide] here?
A: The IC50 was 10 to 100 nM.

Q: Which IC50 does the source give for `CCC(=O)N1CCN(c2cccc(Nc3nccc(-n4cc(C(N)=O)c5ccccc54)n3)c2)CC1` [Compound 128, 1-{2-[3-(4-propionyl-piperazin-1-yl)-phenylamino]-pyrimidin-4-yl}-1H-indole-3-carboxamide] here?
A: The IC50 was 10 to 100 nM.

Q: `CN(C)CCOc1cccc(Nc2nccc(-n3cc(C(N)=O)c4ccccc43)n2)c1` [Compound 129, 1-{2-[3-(2-dimethylamino-ethoxy)-phenylamino]-pyrimidin-4-yl}-1H-indole-3-carboxamide] was tested. Which IC50 did it give?
A: Its IC50 is 10 to 100 nM.

Q: Which IC50 does the source give for `NC(=O)c1cn(-c2ccnc(Nc3ccccn3)n2)c2ccccc12` [Compound 130, 1-[2-(pyridin-2-ylamino)-pyrimidin-4-yl]-1H-indole-3-carboxamide] here?
A: Its IC50 is > 1000 nM.

Q: How did the IC50 turn out when `COc1ccnc(Nc2nccc(-n3cc(C(N)=O)c4ccccc43)n2)c1` [Compound 131, 1-[2-(4-methoxy-pyridin-2-ylamino)-pyrimidin-4-yl]-1H-indole-3-carboxamide] was run?
A: Its IC50 is > 1000 nM.

Q: How did the IC50 turn out when `Cc1cc(C)nc(Nc2nccc(-n3cc(C(N)=O)c4ccccc43)n2)c1` [Compound 132, 1-[2-(4,6-dimethyl-pyridin-2-ylamino)-pyrimidin-4-yl]-1H-indole-3-carboxamide] was run?
A: The IC50 was > 1000 nM.

Q: With `NC(=O)c1cn(-c2ccnc(Nc3ccc(N4CCNCC4)cn3)n2)c2ccccc12` [Compound 133, 1-[2-(5-piperazin-1-yl-pyridin-2-ylamino)-pyrimidin-4-yl]-1H-indole-3-carboxamide] as the compound, how does the IC50 read?
A: Its IC50 is > 1000 nM.

Q: Which IC50 does the source give for `NC(=O)c1cn(-c2nc(Nc3ccc(N4CCNCC4)cn3)ncc2Cl)c2ccccc12` [Compound 134, 1-[5-chloro-2-(5-piperazin-1-yl-pyridin-2-ylamino)-pyrimidin-4-yl]-1H-indole-3-carboxamide] here?
A: Its IC50 is > 1000 nM.

Q: Which IC50 does the source give for `NC(=O)c1cn(-c2ccnc(Nc3ccc(N4CCNCC4)cc3)n2)c2ncccc12` [Compound 135, 1-[2-(4-piperazin-1-yl-phenylamino)-pyrimidin-4-yl]-1H-pyrrolo[2,3-b]pyridine-3-carboxamide] here?
A: Its IC50 is 100 to 1000 nM.

Q: For `Cc1cc(Nc2nccc(-n3cc(C(N)=O)c4cccnc43)n2)ccc1N1CCN(C)CC1` [Compound 136], which IC50 is on record?
A: The IC50 was 100 to 1000 nM.

Q: For `NC(=O)c1cn(-c2nc(Nc3cccc(N4CCOCC4)c3)ncc2F)c2ccccc12` [Compound 137, 1-[5-fluoro-2-(3-morpholin-4-yl-phenylamino)-pyrimidin-4-yl]-1H-indole-3-carboxamide], which IC50 is on record?
A: The IC50 was 1 to 10 nM.

Q: `NC(=O)c1nn(-c2ccnc(Nc3cccc(N4CCNCC4)c3)n2)c2ccccc12` [Compound 138, 1-[2-(3-piperazin-1-yl-phenylamino)-pyrimidin-4-yl]-1H-indazole-3-carboxamide] was tested. Which IC50 did it give?
A: The IC50 was 1 to 10 nM.

Q: Which IC50 does the source give for `NC(=O)c1cn(-c2nc(Nc3cccc(N4CCC(N5CCOCC5)CC4)c3)ncc2F)c2ccccc12` [Compound 139, 1-{5-fluoro-2-[3-(4-morpholin-4-yl-piperidin-1-yl)-phenylamino]-pyrimidin-4-yl}-1H-indole-3-carboxamide] here?
A: Its IC50 is 1 to 10 nM.

Q: Which IC50 does the source give for `CCN1CCN(c2cccc(Nc3ncc(F)c(-n4cc(C(N)=O)c5ccccc54)n3)c2)CC1` [Compound 142, 1-{2-[3-(4-ethyl-piperazin-1-yl)-phenylamino]-5-fluoro-pyrimidin-4-yl}-1H-indole-3-carboxamide] here?
A: The IC50 was < 1 nM.

Q: How did the IC50 turn out when `CN1CCN(Cc2cccc(Nc3ncc(F)c(-n4cc(C(N)=O)c5ccccc54)n3)c2)CC1` [Compound 143, 1-{5-fluoro-2-[3-(4-methyl-piperazin-1-ylmethyl)-phenylamino]-pyrimidin-4-yl}-1H-indole-3-carboxamide] was run?
A: Its IC50 is 10 to 100 nM.

Q: For `CCC(C)N1CCN(c2cccc(Nc3ncc(F)c(-n4cc(C(N)=O)c5ccccc54)n3)c2)CC1` (stereo not shown) [Compound 145, 1-{2-[3-(4-sec-butyl-piperazin-1-yl)-phenylamino]-5-fluoro-pyrimidin-4-yl}-1H-indole-3-carboxamide], which IC50 is on record?
A: Its IC50 is 10 to 100 nM.

Q: `NC(=O)c1cn(-c2nc(Nc3cccc(N4CCNCC4)c3)ncc2F)c2ccccc12` [Compound 146] was tested. Which IC50 did it give?
A: The IC50 was 10 to 100 nM.

Q: With `CC(C)(C)N1CCN(c2cccc(Nc3ncc(F)c(-n4cc(C(N)=O)c5ccccc54)n3)c2)CC1` [Compound 147, 1-{2-[3-(4-tert-butyl-piperazin-1-yl)-phenylamino]-5-fluoro-pyrimidin-4-yl}-1H-indole-3-carboxamide] as the compound, how does the IC50 read?
A: The IC50 was < 1 nM.

Q: For `CN1CCC(N2CCN(c3cccc(Nc4ncc(F)c(-n5cc(C(N)=O)c6ccccc65)n4)c3)CC2)CC1` [Compound 148, 1-(5-fluoro-2-{3-[4-(1-methyl-piperidin-4-yl)-piperazin-1-yl]-phenylamino}-pyrimidin-4-yl)-1H-indole-3-carboxamide], which IC50 is on record?
A: Its IC50 is 1 to 10 nM.

Q: How did the IC50 turn out when `COc1ccc2c(c1)c(C(N)=O)cn2-c1nc(Nc2cccc(N3CCN(C4CCOCC4)CC3)c2)ncc1F` [Compound 149, 1-(5-fluoro-2-{3-[4-(tetrahydro-pyran-4-yl)-piperazin-1-yl]-phenylamino}-pyrimidin-4-yl)-5-methoxy-1H-indole-3-carboxamide] was run?
A: Its IC50 is 1 to 10 nM.

Q: `NC(=O)c1cn(-c2nc(Nc3cccc(N4CCN(C5CCOC5)CC4)c3)ncc2F)c2ccccc12` (stereo not shown) [Compound 150, 1-(5-fluoro-2-{3-[4-(tetrahydro-furan-3-yl)-piperazin-1-yl]-phenylamino}-pyrimidin-4-yl)-1H-indole-3-carboxamide] was tested. Which IC50 did it give?
A: The IC50 was 1 to 10 nM.

Q: `COc1ccc2c(c1)c(C(N)=O)cn2-c1nc(Nc2cccc(N3CCN(C4CCOC4)CC3)c2)ncc1F` (stereo not shown) [Compound 151, 1-(5-fluoro-2-{3-[4-(tetrahydro-furan-3-yl)-piperazin-1-yl]-phenylamino}-pyrimidin-4-yl)-5-methoxy-1H-indole-3-carboxamide] was tested. Which IC50 did it give?
A: Its IC50 is 1 to 10 nM.

Q: For `NC(=O)c1cn(-c2nc(Nc3cccc(-n4cccn4)c3)ncc2F)c2ccccc12` [Compound 153, 1-[5-fluoro-2-(3-pyrazol-1-yl-phenylamino)-pyrimidin-4-yl]-1H-indole-3-carboxamide], which IC50 is on record?
A: The IC50 was 100 to 1000 nM.

Q: Which IC50 does the source give for `Cc1cnn(-c2cccc(Nc3ncc(F)c(-n4cc(C(N)=O)c5ccccc54)n3)c2)c1` [Compound 154, 1-{5-fluoro-2-[3-(4-methyl-pyrazol-1-yl)-phenylamino]-pyrimidin-4-yl}-1H-indole-3-carboxamide] here?
A: Its IC50 is 100 to 1000 nM.

Q: Which IC50 does the source give for `CC(O)CN1CCN(c2cccc(Nc3ncc(F)c(-n4cc(C(N)=O)c5ccccc54)n3)c2)CC1` (stereo not shown) [Compound 155, 1-(5-fluoro-2-{3-[4-(2-hydroxy-propyl)-piperazin-1-yl]-phenylamino}-pyrimidin-4-yl)-1H-indole-3-carboxamide] here?
A: The IC50 was 1 to 10 nM.

Q: With `NC(=O)c1cn(-c2nc(Nc3cccc(N4CCN(CC5CO5)CC4)c3)ncc2F)c2ccccc12` (stereo not shown) [Compound 156, 1-{5-fluoro-2-[3-(4-oxiranylmethyl-piperazin-1-yl)-phenylamino]-pyrimidin-4-yl}-1H-indole-3-carboxamide] as the compound, how does the IC50 read?
A: The IC50 was 10 to 100 nM.

Q: With `NC(=O)c1cn(-c2nc(Nc3cccc(N4CCN(CC5CCOCC5)CC4)c3)ncc2F)c2ccccc12` [Compound 157, 1-(5-fluoro-2-{3-[4-(tetrahydro-pyran-4-ylmethyl)-piperazin-1-yl]-phenylamino}-pyrimidin-4-yl)-1H-indole-3-carboxamide] as the compound, how does the IC50 read?
A: The IC50 was 10 to 100 nM.

Q: How did the IC50 turn out when `NC(=O)c1cn(-c2nc(Nc3cccc(N4CCN(C(=O)C5CCCO5)CC4)c3)ncc2F)c2ccccc12` (stereo not shown) [Compound 158, 1-(5-fluoro-2-{3-[4-(tetrahydro-furan-2-carbonyl)-piperazin-1-yl]-phenylamino}-pyrimidin-4-yl)-1H-indole-3-carboxamide] was run?
A: Its IC50 is 10 to 100 nM.

Q: `COc1ccc2c(c1)c(C(N)=O)cn2-c1nc(Nc2cccc(N3CCN(C(C)C)CC3)c2)ncc1F` [Compound 159, 1-{5-fluoro-2-[3-(4-isopropyl-piperazin-1-yl)-phenylamino]-pyrimidin-4-yl}-5-methoxy-1H-indole-3-carboxamide] was tested. Which IC50 did it give?
A: Its IC50 is 1 to 10 nM.

Q: Which IC50 does the source give for `NC(=O)c1cn(-c2nc(Nc3cccc(N4CCN(CC5CCCO5)CC4)c3)ncc2F)c2ccccc12` (stereo not shown) [Compound 160, 1-(5-fluoro-2-{3-[4-(tetrahydro-furan-2-ylmethyl)-piperazin-1-yl]-phenylamino}-pyrimidin-4-yl)-1H-indole-3-carboxamide] here?
A: Its IC50 is 10 to 100 nM.

Q: For `CCN1CCN(c2cccc(Nc3ncc(F)c(-n4cc(C(N)=O)c5cc(N)ccc54)n3)c2)CC1` [Compound 162, 5-amino-1-{2-[3-(4-ethyl-piperazin-1-yl)-phenylamino]-5-fluoro-pyrimidin-4-yl}-1H-indole-3-carboxamide], which IC50 is on record?
A: Its IC50 is 1 to 10 nM.

Q: With `CCN1CCN(c2cccc(Nc3ncc(F)c(-n4cc(C(N)=O)c5cc(OCCOC)ccc54)n3)c2)CC1` [Compound 164, 1-{2-[3-(4-ethyl-piperazin-1-yl)-phenylamino]-5-fluoro-pyrimidin-4-yl}-5-(2-methoxy-ethoxy)-1H-indole-3-carboxamide] as the compound, how does the IC50 read?
A: The IC50 was 1 to 10 nM.

Q: With `CC(=O)N1CCN(c2cccc(Nc3ncc(F)c(-n4cc(C(N)=O)c5ccccc54)n3)c2)CC1` [Compound 165, 1-{2-[3-(4-acetyl-piperazin-1-yl)-phenylamino]-5-fluoro-pyrimidin-4-yl}-1H-indole-3-carboxamide] as the compound, how does the IC50 read?
A: The IC50 was 10 to 100 nM.
